Assays:
[1] = test system: freely moving adult male Sprague-Dawley rats; assay: Whole-body plethysmography of ventilatory parameters in morphine-treated rats; settings: morphine 10 mg/kg IV; for EF50, ml/sec - Total Response (% change) / Expiratory Drive (TV/Te), ml/sec - Total Response (% change) / Expiratory Time (Te), sec - Total Response (% change) / Frequency, breaths/min - Total Response (% change) / Inspiratory Drive (TV/Ti), ml/sec - Total Response (% change) / Inspiratory Time (Ti), sec - Total Response (% change) / Inspiratory Time/Expiratory Time - Total Response (% change) / Minute Ventilation, ml/min - Total Response (% change) / Peak Expiratory Flow, ml/sec - Total Response (% change) / Peak Expiratory Flow/Peak Inspiratory Flow - Total Response (% change) / Peak Inspiratory Flow, ml/sec - Total Response (% change) / Tidal Volume (TV), ml - Total Response (% change): over the 15 min before drug injection
Protocol: Permissions, rats, surgical procedures and blinding of protocols. All studies were carried out in accordance with the NIH Guide for the Care and Use of Laboratory Animals (NIH Publication No. […]) revised in 1996. The protocols were approved by the Animal Care and Use Committees of the University of Virginia, Case Western Reserve University and Loma Linda University. In addition, all studies were carried out in compliance with the ARRIVE (Animal Research: Reporting of In Vivo Experiments) guidelines. Adult male Sprague-Dawley rats (Harlan, Madison, WI, USA) were implanted with jugular vein catheters under 2% isoflurane anesthesia and some rats received femoral arterial catheters. The rats were allowed at least four days to recover from surgery before use. All arterial catheters were flushed daily with heparin solution (50 units of heparin in phosphate-buffered saline at 0.1 M, pH 7.4). All catheters were flushed with phosphate-buffered saline (0.1 M, pH 7.4) approximately four hours before commencement of the experiments. All studies were performed in a quiet laboratory with relative humidity of 49±2% and room temperature of 21.4±0.2° C. […] Also, please note that the antinociception and ventilatory studies were done in separate groups of rats so as to not complicate the respiratory measurements. The recording (plethysmography, antinociception) sessions and the arterial blood gas assays were done by a particular investigator who administered the opioid, vehicle or test drug such as d-cystine diME. The syringes containing the vehicle or test drug were made up by another investigator, such that the investigator running the actual experiment was blinded to the treatment protocol. In every case, the data files resulting from a particular study were first collated and analyzed by another investigator in the group.
Ventilatory parameters were recorded in freely moving rats by whole body plethysmography (PLY3223; Data Sciences International, St. Paul, MN). The rats were placed in individual chambers and given 60 min to acclimatize to allow true resting ventilatory parameters to be established. […] The rats received another injection of vehicle or 1-NACme (500 μmol/kg, IV) 15 min later and ventilatory parameters were recorded for a further 60 min.
The provided software (Fine Pointe, BUXCO) constantly corrected digitized values for changes in chamber temperature and humidity. Pressure changes associated with the respiratory waveforms were then converted to volumes (i.e., TV, PIF and PEF) using the algorithm of Epstein and colleagues. Specifically, factoring in chamber temperature and humidity, the cycle analyzers filtered the acquired signals, and BUXCO algorithms (Fine Pointe) generated an array of box flow data that identified a waveform segment as an acceptable breath. From that data vector, the minimum and maximum values were determined. Flows at this point were considered to be “box flow” signals.
The recorded data (1 min bins) and derived parameters, Vt/Ti and Response Area (cumulative percent changes from pre-values) were taken for statistical analyses. The pre-drug 1 min bins excluded occasional marked deviations from resting due to movements or scratching by the rats. These exclusions ensured accurate determinations of baseline parameters. The data are presented as mean±SEM. All data unless other-wise stated (see immediately below) were analyzed by one-way or two-way analysis of variance followed by Student's modified t test with Bonferroni corrections for multiple comparisons between means using the error mean square terms from each ANOVA. A value of P<0.05 denoted the initial level of statistical significance that was modified according to the number of comparisons between means.

rats = assay: Sedation observation in morphine-treated rats; settings: morphine 10 mg/kg IV plus vehicle
freely moving rats = assay: Hot-plate (hind-paw withdrawal) latency (HPL), Hargreaves's test, morphine 10 mg/kg; format: in vivo, rat; settings: morphine 10 mg/kg IV in vehicle-treated rats
[2] = freely moving rats, then d-cystine diEE 500 μmol/kg IV 15 min later
[3] = rats that subsequently received D-Cystine diEE
[4] = rats that subsequently received vehicle, D-Cystine diEE study
[5] = rats that subsequently received D-Cystine
[6] = rats that subsequently received L-NACme
[7] = rats that subsequently received vehicle, D-Cystine study
[8] = rats that subsequently received vehicle, L-NACme study

With CN1CC[C@]23c4c5ccc(O)c4O[C@H]2[C@@H](O)C=C[C@H]3[C@H]1C5 [Morphine, morphine] the “changes in EF50” value [1, 2] was “sustained increase”, the “changes in expiratory drive (TV/Te)” value [1, 2] was “relatively pronounced but shorter-lived decrease” and the “changes in expiratory time (Te)” value [1, 2] was “decreases in Te”. The “changes in frequency of breathing (Freq)” value [1, 2] was “brief increase in Freq that was followed a relatively transient decrease”, the “changes in inspiratory drive (TV/Ti)” value [1, 2] was “prompt and sustained decrease” and the “changes in inspiratory time (Ti)” value [1, 2] was “sustained increases in Ti”. The “changes in minute ventilation (MV)” value [1, 2] was “transient increase in MV that was followed by a sustained decrease”, the “changes in peak expiratory flow (PEF)” value [1, 2] was “lesser decreases” and the “changes in peak inspiratory flow (PIF)” value [1, 2] was “pronounced and sustained decrease”. For the same molecule, the “changes in tidal volume (TV)” value [1, 2] was “prompt and sustained decrease”, the “EF50, ml/sec - Total Response (% change)” value [1, 3] was “+33.4 ± 15.0 %” and the “Expiratory Drive (TV/Te), ml/sec - Total Response (% change)” value [1, 3] was −14.6 ± 10.2%. For the same molecule, the “Expiratory Time (Te), sec - Total Response (% change)” value [1, 3] was −2.0 ± 6.1%, the “Frequency, breaths/min - Total Response (% change)” value [1, 3] was −1.9 ± 6.6% and the “Inspiratory Drive (TV/Ti), ml/sec - Total Response (% change)” value [1, 3] was −44.5 ± 5.5 %. For the same molecule, the “Inspiratory Time (Ti), sec - Total Response (% change)” value [1, 3] was “+40.2 ± 6.3 %”, the “Inspiratory Time/Expiratory Time - Total Response (% change)” value [1, 3] was −27.1 ± 6.2 % and the “Minute Ventilation, ml/min - Total Response (% change)” value [1, 3] was −28.4 ± 6.4 %. For the same molecule, the “Peak Expiratory Flow, ml/sec - Total Response (% change)” value [1, 3] was −16.2 ± 5.7 %, the “Peak Expiratory Flow/Peak Inspiratory Flow - Total Response (% change)” value [1, 3] was “+21.5 ± 6.7 %” and the “Peak Inspiratory Flow, ml/sec - Total Response (% change)” value [1, 3] was −29.7 ± 2.7 %. For the same molecule, the “Tidal Volume (TV), ml - Total Response (% change)” value [1, 3] was −26.3 ± 7.4 %, the “EF50, ml/sec - Total Response (% change)” value [1, 4] was “+30.5 ± 14.7 %” and the “Expiratory Drive (TV/Te), ml/sec - Total Response (% change)” value [1, 4] was −22.3 ± 13.6%. The “Expiratory Time (Te), sec - Total Response (% change)” value [1, 4] was −4.7 ± 6.0%, the “Frequency, breaths/min - Total Response (% change)” value [1, 4] was “+0.3 ± 4.3%” and the “Inspiratory Drive (TV/Ti), ml/sec - Total Response (% change)” value [1, 4] was −44.3 ± 7.1 %. The “Inspiratory Time (Ti), sec - Total Response (% change)” value [1, 4] was “+38.6 ± 2.9 %”, the “Inspiratory Time/Expiratory Time - Total Response (% change)” value [1, 4] was −24.1 ± 4.7 % and the “Minute Ventilation, ml/min - Total Response (% change)” value [1, 4] was −28.6 ± 7.2 %. The “Peak Expiratory Flow, ml/sec - Total Response (% change)” value [1, 4] was −17.4 ± 6.1 %, the “Peak Expiratory Flow/Peak Inspiratory Flow - Total Response (% change)” value [1, 4] was “+27.6 ± 7.0 %” and the “Peak Inspiratory Flow, ml/sec - Total Response (% change)” value [1, 4] was −29.5 ± 8.1 %. The “Tidal Volume (TV), ml - Total Response (% change)” value [1, 4] was −29.3 ± 7.6 %, the “Frequency: Morphine - first 15 min response (%)” value [1, 5] was −4.7 ± 3.1% and the “Frequency: Morphine - peak (+) response (%)” value (“Frequency … (+) response (%)” below) [1, 5] was “+62 ± 7 %”. The “Frequency: Morphine peak (−) response (%)” value (from here on “Frequency … (−) response (%)”) [1, 5] was −23 ± 4 %, the “Minute Ventilation: Morphine - first 15 min response (%)” value [1, 5] was −38 ± 5 % and the “Minute Ventilation: Morphine - peak (+) response (%)” value [1, 5] was “+14 ± 3 %”. The “Minute Ventilation: Morphine peak (−) response (%)” value [1, 5] was −61 ± 8 %, the “Tidal Volume: Morphine - first 15 min response (%)” value [1, 5] was −35 ± 5 % and the “Tidal Volume: Morphine - peak (+) response (%)” value (“Tidal Volume … (+) response (%)” for short) [1, 5] was −30 ± 4 %. For the same molecule, the “Tidal Volume: Morphine peak (−) response (%)” value [1, 5] was −51 ± 6 %, the “EF50, ml/sec - Peak Responses (% change)” value [1, 3] was “+122 ± 27 %” and the “Expiratory Drive (TV/Te), ml/sec - Peak Responses (% change)” value [1, 3] was −46.2 ± 7.8 %. The “Expiratory Time (Te), sec - Peak Responses (% change)” value [1, 3] was −32.4 ± 17.6%, the “Frequency, breaths/min - Peak Responses (% change)” value [1, 3] was −20.0 ± 4.5 % and the “Inspiratory Drive (TV/Ti), ml/sec - Peak Responses (% change)” value [1, 3] was −53.7 ± 6.0 %. The “Inspiratory Time (Ti), sec - Peak Responses (% change)” value [1, 3] was “+41.3 ± 7.1 %”, the “Inspiratory Time/Expiratory Time - Peak Responses (% change)” value [1, 3] was −41.7 ± 7.8 % and the “Minute Ventilation, ml/min - Peak Responses (% change)” value [1, 3] was −48.5 ± 6.0 %. For the same molecule, the “Peak Expiratory Flow, ml/sec - Peak Responses (% change)” value [1, 3] was −34.8 ± 6.7 %, the “Peak Expiratory Flow/Peak Inspiratory Flow - Peak Responses (% change)” value [1, 3] was “+26.7 ± 5.4 %” and the “Peak Inspiratory Flow, ml/sec - Peak Responses (% change)” value [1, 3] was −43.2 ± 2.7 %. For the same molecule, the “Tidal Volume (TV), ml - Peak Responses (% change)” value [1, 3] was −35.8 ± 6.9 %, the “Frequency: Morphine - first 15 min response (%)” value [1, 6] was −4.9 ± 2.8% and the “Frequency … (+) response (%)” value [1, 6] was “+42 ± 6 %”. For the same molecule, the “Frequency … (−) response (%)” value [1, 6] was −22 ± 4 %, the “Minute Ventilation: Morphine - first 15 min response (%)” value [1, 6] was −35 ± 3 % and the “Minute Ventilation: Morphine - peak (+) response (%)” value [1, 6] was “+20 ± 6 %”. For the same molecule, the “Minute Ventilation: Morphine peak (−) response (%)” value [1, 6] was −54 ± 4 %, the “Tidal Volume: Morphine - first 15 min response (%)” value [1, 6] was −34 ± 3 % and the “Tidal Volume … (+) response (%)” value [1, 6] was −16 ± 6 %. The “Tidal Volume: Morphine peak (−) response (%)” value [1, 6] was −40 ± 6 %, the “EF50, ml/sec - Peak Responses (% change)” value [1, 4] was “+133 ± 42 %” and the “Expiratory Drive (TV/Te), ml/sec - Peak Responses (% change)” value [1, 4] was −51.5 ± 10.1 %. The “Expiratory Time (Te), sec - Peak Responses (% change)” value [1, 4] was −29.3 ± 17.1%, the “Frequency, breaths/min - Peak Responses (% change)” value [1, 4] was −21.5 ± 3.4 % and the “Inspiratory Drive (TV/Ti), ml/sec - Peak Responses (% change)” value [1, 4] was −52.7 ± 5.4 %. The “Inspiratory Time (Ti), sec - Peak Responses (% change)” value [1, 4] was “+37.9 ± 3.0 %”, the “Inspiratory Time/Expiratory Time - Peak Responses (% change)” value [1, 4] was −38.0 ± 4.2 % and the “Minute Ventilation, ml/min - Peak Responses (% change)” value [1, 4] was −51.2 ± 6.3 %. The “Peak Expiratory Flow, ml/sec - Peak Responses (% change)” value [1, 4] was −38.1 ± 8.5 %, the “Peak Expiratory Flow/Peak Inspiratory Flow - Peak Responses (% change)” value [1, 4] was “+30.2 ± 3.4 %” and the “Peak Inspiratory Flow, ml/sec - Peak Responses (% change)” value [1, 4] was −45.6 ± 7.0 %. The “Tidal Volume (TV), ml - Peak Responses (% change)” value [1, 4] was −42.9 ± 8.7 %, the “Frequency: Morphine - first 15 min response (%)” value [1, 7] was −3.8 ± 2.6% and the “Frequency … (+) response (%)” value [1, 7] was “+57 ± 8 %”. The “Frequency … (−) response (%)” value [1, 7] was −21 ± 3 %, the “Minute Ventilation: Morphine - first 15 min response (%)” value [1, 7] was −39 ± 4 % and the “Minute Ventilation: Morphine - peak (+) response (%)” value [1, 7] was “+9 ± 3 %”. For the same molecule, the “Minute Ventilation: Morphine peak (−) response (%)” value [1, 7] was −60 ± 9 %, the “Tidal Volume: Morphine - first 15 min response (%)” value [1, 7] was −37 ± 6 % and the “Tidal Volume … (+) response (%)” value [1, 7] was −32 ± 5 %. The “Tidal Volume: Morphine peak (−) response (%)” value [1, 7] was −49 ± 5 %, the “Frequency: Morphine - first 15 min response (%)” value [1, 8] was −4.0 ± 2.1% and the “Frequency … (+) response (%)” value [1, 8] was “+47 ± 6 %”. The “Frequency … (−) response (%)” value [1, 8] was −24 ± 3 %, the “Minute Ventilation: Morphine - first 15 min response (%)” value [1, 8] was −36 ± 3 % and the “Minute Ventilation: Morphine - peak (+) response (%)” value [1, 8] was “+19 ± 5 %”. The “Minute Ventilation: Morphine peak (−) response (%)” value [1, 8] was −53 ± 5 %, the “Tidal Volume: Morphine - first 15 min response (%)” value [1, 8] was −33 ± 4 % and the “Tidal Volume … (+) response (%)” value [1, 8] was −19 ± 3 %. For the same molecule, the “Tidal Volume: Morphine peak (−) response (%)” value [1, 8] was −38 ± 5 %, the “time for which full mobility was not evident” value (rats) was “at least 2 h” and the “duration of the increase in HPL” value (freely moving rats) was “at least 4 h”.

— patent US12083089B2, “Compositions and methods for stimulating ventilatory and/or respiratory drive” (CASE WESTERN RESERVE UNIVERSITY, priority 2015, dated 2024)
